Earlier results in patent publication US20150119345A1, “BILE ACID RECYCLING INHIBITORS FOR TREATMENT OF GASTROINTESTINAL INFECTIONS” (priority 2013, published 2015).

Experiments:
mice = details: 0.1 mg/kg rat or human GLP-2 to mice for 7-10 days

GLP-2: 33 amino acid peptide, co-secreted along with GLP-1 from intestinal endocrine cells in the small and large intestine
small bowel weight and villus height (mice): increase in small bowel weight and villus height | t½ in vivo: short
